Like-named read-outs stand apart in the source and are kept apart here.
Tests used:
L. jensenii = details: medium with 0.5% (w/v) isomaltulose, pH 5.4
Source text: (§3) The following culture media containing different concentrations of preservatives were formulated with a basal medium containing 0.5% (w/v) isomaltulose, MRS medium without carbohydrate, and 5% (w/v) calf serum:
A. 0.1% (w/v) sodium benzoate
B. 0.2% (w/v) sodium benzoate
C. 0.02% (w/v) sodium dehydroacetate
D. 0.25% (w/v) sodium propionate group
E. 0.5% (w/v) sodium propionate group
(§4) F. 0.02% (w/v) sodium dehydroacetate+0.25% (w/v) sodium propionate group
(§5) G. 0.02% (w/v) sodium dehydroacetate+0.5% (w/v) sodium propionate group
(§6) The culture medium of each group was adjusted to pH 5.4, sterilized and packed in a test tube in a specification of 2 ml/tube.
(§7) (2) Inoculation and incubation of test strains: a bacterial suspension containing (1-5)×10^5 cfu/ml Candida glabrada isolate and a bacterial suspension containing (1-5)×10^5 cfu/ml L. jensenii were inoculated to each tube respectively. The Candida glabrada was aerobically incubated at 37° C. for 72 hrs, and the L. jensenii was microaerophilic incubated for 22 hrs.

Candida glabrada isolate = details: medium with 0.5% (w/v) isomaltulose, pH 5.4
Source text: as §3
A. 0.1% (w/v) sodium benzoate
B. 0.2% (w/v) sodium benzoate
C. 0.02% (w/v) sodium dehydroacetate
D. 0.25% (w/v) sodium propionate group
E. 0.5% (w/v) sodium propionate group
as §4, §5, §6, §7

BV-associated bacteria [1] = assay: Acid production by BV-associated bacteria in carbohydrate containing gels, slightly aerobic incubation (Experimental Example 1); assay type: cell-based; details: 1% (w/v) carbohydrate gel
Source text: (1) Grouping in experiment: • (1) Isomaltulose group: containing 1% (w/v) isomaltulose, MRS basal medium without carbohydrate, 5% (w/v) calf serum, and 0.5% (w/v) xanthan gum, pH5.4; • (2) Isomaltose group: containing 1% (w/v) isomaltose, MRS basal medium without carbohydrate, 5% (w/v) calf serum, and 0.5% (w/v) xanthan gum, pH5.4; • (3) Sucrose group: containing 1% (w/v) sucrose, MRS basal medium without carbohydrate, 5% (w/v) calf serum, and 0.5% (w/v) xanthan gum, pH5.4; and • (4) Maltose group: containing 1% (w/v) maltose, MRS basal medium without carbohydrate, 5% (w/v) calf serum, and 0.5% (w/v) xanthan gum, pH5.4.
The gel of each group was formulated essentially following the method described in Composition Example 1, then sterilized, added with calf serum, and packed in test tubes in a specification of 5 g/tube, for late use.
(§1) (2) Secretion specimens from BV patients: vaginal secretions from 5 BV patients; and the criteria of inclusion are: • (1) conforming to the Amsel clinical criteria of BV diagnosis, wherein the pH value of the vaginal secretions was >4.6; • (2) after smearing, Gram staining and microscopical examination of vaginal secretions, Nugent score ≥7; and • (3) no other vaginosis and no antimicrobial agent is used within two weeks.
(3) After sampling, the secretion specimens from BV patients meeting the criteria of inclusion were immediately inoculated to the above 4 gels containing a carbohydrate, and slightly aerobically incubated at 37° C. for 46 hrs. The pH values of the gel matrices are detected with a precise pH test paper respectively at 14 hrs, 36 hrs, and 46 hrs.

Canidia albicans = assay: Metabolization of carbohydrates by Canidia albicans, residual carbohydrate by HPLC (Experimental Example 5); assay type: cell-based; details: for residual carbohydrate content by HPLC: 72 hrs aerobic, 37° C., initial 1.5% (w/v) carbohydrate, pH 7.0, detection limit 0.05% (w/v)
Procedure: (1) Grouping in experiment:
(2) Test strain: 2 strains of Canidia albicans, isolated from patients with candidal vaginitis.
The supernatant was separated by centrifugation, and packed in a specification of 5 ml/tube. The carbohydrate content in each tube was detected by HPLC.

[2] = tested on: Bifidobacteria in the secretions from BV patients; assay: Selective promotion of carbohydrate containing gels for the growth of Bifidobacteria (Experimental Example 4); assay type: cell-based; details: secretions from 20 BV patients; 1% (w/v) carbohydrate gel, 48 hrs slightly aerobic
Procedure: (§2) (3) After sampling, the vaginal secretion specimens from BV patients meeting the criteria of inclusion were immediately inoculated to the above 4 gels containing a carbohydrate, slightly aerobically incubated at 37° C. for 48 hrs, then transferred to a plate containing improved MRS with 1% (w/v) glucose and 5% (w/v) calf serum, slightly aerobically incubated for 20-48 hrs, isolated, purified and multiplied. The strain was identified by 16s rDNA sequencing.

BV-associated bacteria [3] = assay: Acid production by BV-associated bacteria in semi-solid agars containing a carbohydrate, anaerobic incubation (Experimental Example 2); assay type: cell-based; details: 24 hrs anaerobic, 37° C., 1.5% (w/v) carbohydrate, initial pH 5.4
Source text: (1) Grouping in experiment: • (1) Glucose group: containing 1.5% (w/v) glucose, MRS basal medium without carbohydrate, 5% (w/v) calf serum, and 0.45% (w/v) agar, pH5.4; • (2) Fructose group: containing 1.5% (w/v) fructose, MRS basal medium without carbohydrate, 5% (w/v) calf serum, and 0.45% (w/v) agar, pH5.4; • (3) Mannose group: containing 1.5% (w/v) mannose, MRS basal medium without carbohydrate, 5% (w/v) calf serum, and 0.45% (w/v) agar, pH5.4; • (4) Sucrose group: containing 1.5% (w/v) sucrose, MRS basal medium without carbohydrate, 5% (w/v) calf serum, and 0.45% (w/v) agar, pH5.4; • (5) Maltose group: containing 1.5% (w/v) maltose, MRS basal medium without carbohydrate, 5% (w/v) calf serum, and 0.45% (w/v) agar, pH5.4; • (6) Isomaltose group: containing 1.5% (w/v) isomaltose, MRS basal medium without carbohydrate, 5% (w/v) calf serum, and 0.45% (w/v) agar, pH5.4; and • (7) Isomaltulose group: containing 1.5% (w/v) isomaltulose, MRS basal medium without carbohydrate, 5% (w/v) calf serum, and 0.45% (w/v) agar, pH5.4.
The semi-solid agar of each group was formulated essentially following the method described in Composition Example 1, then sterilized, added with calf serum, and packed in test tubes in a specification of 5 g/tube, for late use.
as §1
(3) After sampling, the secretion specimens from BV patients meeting the criteria of inclusion were immediately inoculated to the above 7 aseptic semi-solid agars containing a carbohydrate at the bedside and anaerobically incubated at 37° C. for 24 hrs. The pH values of the agar matrices are detected with a precise pH test paper.

[4] = tested on: Gardnerella vaginalis in the secretions from BV patients; assay: Selective promotion of carbohydrate containing gels for the growth of Gardnerella vaginalis (Experimental Example 4); assay type: cell-based; details: secretions from 20 BV patients; 1% (w/v) carbohydrate gel, 48 hrs slightly aerobic
Procedure: as §2

[5] = tested on: Lactobacilli in the secretions from BV patients; assay: Selective promotion of carbohydrate containing gels for the growth of Lactobacilli, 16s rDNA identification (Experimental Example 4); assay type: cell-based; details: secretions from 20 BV patients; 1% (w/v) carbohydrate gel, 48 hrs slightly aerobic
Procedure: as §2

BV = details: cited from earlier work; for cure rate for BV: Livengood 2007
[6] = 0.02% (w/v) sodium dehydroacetate

## CCC(=O)[O-].[Na+] [sodium propionate]
L. jensenii; 0.25% (w/v) sodium propionate
  turbidity, Lactobacilli (0 hr): 0.6
  turbidity, Lactobacilli (22 hrs): 5.2
L. jensenii; 0.5% (w/v) sodium propionate
  turbidity, Lactobacilli (0 hr): 0.4
  turbidity, Lactobacilli (22 hrs): 1.7
Candida glabrada isolate; 0.25% (w/v) sodium propionate
  turbidity, Candida (0 hr): 0.5
  turbidity, Candida (72 hrs): >7.5
Candida glabrada isolate; 0.5% (w/v) sodium propionate
  turbidity, Candida (0 hr): 0.4
  turbidity, Candida (72 hrs): 6.3

## CC(=O)c1c([O-])cc(C)oc1=O.[Na+] [sodium dehydroacetate]
L. jensenii; [6]
  turbidity, Lactobacilli (0 hr): 0.5
  turbidity, Lactobacilli (22 hrs): 1.4
Candida glabrada isolate; [6]
  turbidity, Candida (0 hr): 0.5
  turbidity, Candida (72 hrs): 3.9

## OC[C@H]1O[C@H](O[C@H]2[C@H](O)[C@@H](O)C(O)O[C@@H]2CO)[C@H](O)[C@@H](O)[C@@H]1O (mixture of isomers) [Maltose, maltose]
BV-associated bacteria [1]; Specimen 1, 0 hr (initial)
  pH of the gel: 5.4
BV-associated bacteria [1]; Specimen 1, 14 hrs, slightly aerobic, 37° C., initial pH 5.4
  pH of the gel: 3.8
BV-associated bacteria [1]; Specimen 1, 46 hrs, slightly aerobic, 37° C., initial pH 5.4
  pH of the gel: ≤3.8
BV-associated bacteria [1]; Specimen 2, 0 hr (initial)
  pH of the gel: 5.4
BV-associated bacteria [1]; Specimen 2, 14 hrs, slightly aerobic, 37° C., initial pH 5.4
  pH of the gel: 4.1-4.4
BV-associated bacteria [1]; Specimen 2, 46 hrs, slightly aerobic, 37° C., initial pH 5.4
  pH of the gel: ≤3.8
BV-associated bacteria [1]; Specimen 3, 0 hr (initial)
  pH of the gel: 5.4
BV-associated bacteria [1]; Specimen 3, 14 hrs, slightly aerobic, 37° C., initial pH 5.4
  pH of the gel: 4.1-4.4
BV-associated bacteria [1]; Specimen 3, 36 hrs, slightly aerobic, 37° C., initial pH 5.4
  pH of the gel: ≤3.8
BV-associated bacteria [1]; Specimen 4, 0 hr (initial)
  pH of the gel: 5.4
BV-associated bacteria [1]; Specimen 4, 14 hrs, slightly aerobic, 37° C., initial pH 5.4
  pH of the gel: 4.6
BV-associated bacteria [1]; Specimen 4, 36 hrs, slightly aerobic, 37° C., initial pH 5.4
  pH of the gel: ≤3.8
BV-associated bacteria [1]; Specimen 5, 0 hr (initial)
  pH of the gel: 5.4
BV-associated bacteria [1]; Specimen 5, 14 hrs, slightly aerobic, 37° C., initial pH 5.4
  pH of the gel: 4.1-4.4
BV-associated bacteria [1]; Specimen 5, 36 hrs, slightly aerobic, 37° C., initial pH 5.4
  pH of the gel: 4.1-4.4
Canidia albicans; Canidia albicans 1
  residual carbohydrate content by HPLC: Not detected^1
Canidia albicans; Canidia albicans 2
  residual carbohydrate content by HPLC: Not detected
Canidia albicans; both strains of Canidia albicans, 72 hrs, initial 1.5% (w/v)
  residual concentration: below 0.05 % (w/v)
[2]
  number of samples positive for Bifidobacterium bifidum: 1 (8)
  number of samples positive for Bifidobacterium breve: 0
  number of samples positive for Bifidobacterium dentium: 0
  number of samples positive for Bifidobacterium longum: 0
  samples positive for Bifidobacteria, In total: 1
BV-associated bacteria [3]; Specimen 1
  pH of the semi-solid agar: 3.8
BV-associated bacteria [3]; Specimen 2
  pH of the semi-solid agar: 3.8
BV-associated bacteria [3]; Specimen 3
  pH of the semi-solid agar: 3.8
BV-associated bacteria [3]; Specimen 4
  pH of the semi-solid agar: 3.8
BV-associated bacteria [3]; Specimen 5
  pH of the semi-solid agar: 3.8
[4]
  number of samples positive for Gardnerella vaginalis: 6 (2, 6, 7, 9, 15, 19)
  samples positive for Gardnerella vaginalis, In total: 6
[5]
  samples positive for Lactobacilli, In total: 8
  total number of samples positive for L. amylovorus incubation: 1
  total number of samples positive for L. crispatus incubation: 1
  total number of samples positive for L. gasseri incubation: 2
  total number of samples positive for L. iners incubation: 0
  total number of samples positive for L. jensenii incubation: 3
  total number of samples positive for L. mucosae incubation: 1

## O=C([O-])c1ccccc1.[Na+] [sodium benzoate]
L. jensenii; 0.1% (w/v) sodium benzoate
  turbidity, Lactobacilli (0 hr): 0.6
  turbidity, Lactobacilli (22 hrs): 0.9
L. jensenii; 0.2% (w/v) sodium benzoate
  turbidity, Lactobacilli (0 hr): 0.7
  turbidity, Lactobacilli (22 hrs): 0.7
Candida glabrada isolate; 0.1% (w/v) sodium benzoate
  turbidity, Candida (0 hr): 0.6
  turbidity, Candida (72 hrs): 7.1
Candida glabrada isolate; 0.2% (w/v) sodium benzoate
  turbidity, Candida (0 hr): 0.6
  turbidity, Candida (72 hrs): 2.1

## Cc1ncc([N+](=O)[O-])n1CCO [metronidazole]
BV; BV patients
  cure rate: about 60%

## O=C(CO)[C@@H](O)[C@H](O)[C@H](O)CO [Fructose, fructose]
BV-associated bacteria [3]; Specimen 1
  pH of the semi-solid agar: 4.6
BV-associated bacteria [3]; Specimen 2
  pH of the semi-solid agar: 4.1
BV-associated bacteria [3]; Specimen 3
  pH of the semi-solid agar: 3.8-4.1
BV-associated bacteria [3]; Specimen 4
  pH of the semi-solid agar: 4.1
BV-associated bacteria [3]; Specimen 5
  pH of the semi-solid agar: 3.8

## CCS(=O)(=O)CCn1c([N+](=O)[O-])cnc1C [tinidazole]
BV; FDA 1998 guideline, both the clinical and microbiological cure standards met
  cure rate for BV: 37%
BV; cure if 3 of the 4 traditional Amsel clinical criteria are normal
  cure rate for BV: 57%

From patent US10869878B2, “Vaginal composition and use thereof” (SINGAPORE ZE&Z INTERNATIONAL PTE. LTD, priority 2014, dated 2020)
